Here are results for three compounds from patent US20260234157A1, “COMPOUND AND METHOD FOR TARGETED DEGRADATION OF ANDROGEN RECEPTOR” (Gan & Lee Pharmaceuticals Co., Ltd., priority 2023, published 2026).

Numbering of substitutions follows the chain as printed. pIC50: −log10 of the molar value.

The first assay addresses T1, AR protein (Homo sapiens, UniProt P10275, T878A).
T1 construct: degradation activity of the compounds disclosed in the present disclosure on AR protein in LNCaP cells; host or cells: LNCaP FGC
T1 sequence (P10275 1-920 T878A): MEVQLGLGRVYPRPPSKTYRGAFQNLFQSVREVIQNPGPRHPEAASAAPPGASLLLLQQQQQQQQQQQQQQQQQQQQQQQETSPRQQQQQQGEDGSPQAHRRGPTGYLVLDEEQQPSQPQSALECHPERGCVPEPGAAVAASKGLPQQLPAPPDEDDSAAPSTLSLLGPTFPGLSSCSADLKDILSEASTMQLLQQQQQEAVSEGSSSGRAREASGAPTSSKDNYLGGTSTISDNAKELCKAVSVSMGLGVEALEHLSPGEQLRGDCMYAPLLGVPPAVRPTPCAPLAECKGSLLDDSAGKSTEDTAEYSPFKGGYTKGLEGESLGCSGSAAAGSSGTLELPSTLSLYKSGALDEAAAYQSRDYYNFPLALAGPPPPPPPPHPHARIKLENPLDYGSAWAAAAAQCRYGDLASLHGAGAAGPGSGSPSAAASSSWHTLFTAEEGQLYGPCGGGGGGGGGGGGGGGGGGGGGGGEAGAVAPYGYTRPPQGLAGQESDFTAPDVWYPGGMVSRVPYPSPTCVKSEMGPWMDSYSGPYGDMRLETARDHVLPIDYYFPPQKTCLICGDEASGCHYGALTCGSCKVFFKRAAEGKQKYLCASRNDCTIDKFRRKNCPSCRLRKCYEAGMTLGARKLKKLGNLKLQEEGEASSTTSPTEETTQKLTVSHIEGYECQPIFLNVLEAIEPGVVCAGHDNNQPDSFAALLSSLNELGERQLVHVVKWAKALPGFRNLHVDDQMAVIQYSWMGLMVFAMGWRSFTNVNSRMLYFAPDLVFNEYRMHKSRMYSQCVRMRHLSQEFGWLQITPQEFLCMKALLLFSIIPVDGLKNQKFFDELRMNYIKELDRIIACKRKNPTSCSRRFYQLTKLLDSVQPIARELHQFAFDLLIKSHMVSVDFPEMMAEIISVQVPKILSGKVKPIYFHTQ
Nature of the assay: Degradation of AR protein in LNCaP cells (Western blot). Format: cell-based. The following applies: LNCaP cells, compound 10 nM, 8 hours, Western blot grayscale, GAPDH internal reference; read-out: Degradation rates of the AR protein in LNCaP cells, 10 nM (%). An outline of the steps: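 AR assessed by SDS-PAGE/Western blot with infrared imaging; band greyscale normalised to GAPDH gave percent degradation.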
With `COc1cc(O[C@H]2C(C)(C)[C@H](NC(=O)c3ccc(N4CCC(C)(CN5CC6(CCc7cc8c(cc7O6)C(=O)N(C6CCC(=O)NC6=O)C8)C5)CC4)cc3)C2(C)C)ccc1C#N` (stereo partly drawn) [Compound 265], the inhibition at 0.01 µM amounted to 66%.
Still for that read-out and setting: the value for `COc1cc(O[C@H]2C(C)(C)[C@H](NC(=O)c3ccc(N4CCC(C)(CN5CCC6(CC5)COc5c(ccc7c5C(=O)N(C5CCC(=O)NC5=O)C7)C6)CC4)cc3)C2(C)C)ccc1C#N` (stereo partly drawn) [Compound 266] was 49%.
`COc1cc(O[C@H]2C(C)(C)[C@H](NC(=O)c3ccc(N4CCC(C)(CN5CCC6(CCc7cc8c(cc7O6)C(=O)N(C6CCC(=O)NC6=O)C8)CC5)CC4)cc3)C2(C)C)ccc1C#N` (stereo partly drawn) [Compound 267]: the inhibition at 0.01 µM came to 30%.

The same assay, now with this note: LNCaP cells, compound 100 nM, 8 hours, Western blot grayscale, GAPDH internal reference; read-out: Degradation rates of the AR protein in LNCaP cells, 100 nM (%).
In the case of `COc1cc(O[C@H]2C(C)(C)[C@H](NC(=O)c3ccc(N4CCC(C)(CN5CC6(CCc7cc8c(cc7O6)C(=O)N(C6CCC(=O)NC6=O)C8)C5)CC4)cc3)C2(C)C)ccc1C#N` (stereo partly drawn) [Compound 265], the inhibition at 0.1 µM was found to be 61%.
As for `COc1cc(O[C@H]2C(C)(C)[C@H](NC(=O)c3ccc(N4CCC(C)(CN5CCC6(CC5)COc5c(ccc7c5C(=O)N(C5CCC(=O)NC5=O)C7)C6)CC4)cc3)C2(C)C)ccc1C#N` (stereo partly drawn) [Compound 266], the inhibition at 0.1 µM came out at 73%.
On the same count and under the same terms, in the case of `COc1cc(O[C@H]2C(C)(C)[C@H](NC(=O)c3ccc(N4CCC(C)(CN5CCC6(CCc7cc8c(cc7O6)C(=O)N(C6CCC(=O)NC6=O)C8)CC5)CC4)cc3)C2(C)C)ccc1C#N` (stereo partly drawn) [Compound 267] it was 66%.

A further assay has as its target T2, AR protein (Homo sapiens, UniProt P10275).
T2 construct: degradation activity of the compounds disclosed in the present disclosure on AR protein in VCaP cells; host or cells: VCaP
T2 sequence (P10275 1-920): T1 sequence (P10275 1-920 T878A) with A878T
Nature of the assay: Degradation of AR protein in VCaP cells (Western blot). It is filed as cell-based. The following applies: compound at 10 nM, 8 hours, read-out: Degradation rate of the AR protein in VCaP cells, 10 nM (%). The method in brief: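 VCaP cells treated with compound alongside solvent controls for 8 h, then lysed in RIPA and protein quantified by BCA. AR detected by SDS-PAGE/Western blot with infrared imaging. Degradation rate calculated from band grayscale, with GAPDH as internal reference.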
Turning to `COc1cc(O[C@H]2C(C)(C)[C@H](NC(=O)c3ccc(N4CCC(C)(CN5CC6(CCc7cc8c(cc7O6)C(=O)N(C6CCC(=O)NC6=O)C8)C5)CC4)cc3)C2(C)C)ccc1C#N` (stereo partly drawn) [Compound 265], the inhibition at 0.01 µM is 34%.
Still for that read-out and setting: the value for `COc1cc(O[C@H]2C(C)(C)[C@H](NC(=O)c3ccc(N4CCC(C)(CN5CCC6(CC5)COc5c(ccc7c5C(=O)N(C5CCC(=O)NC5=O)C7)C6)CC4)cc3)C2(C)C)ccc1C#N` (stereo partly drawn) [Compound 266] was 21%; that for `COc1cc(O[C@H]2C(C)(C)[C@H](NC(=O)c3ccc(N4CCC(C)(CN5CCC6(CCc7cc8c(cc7O6)C(=O)N(C6CCC(=O)NC6=O)C8)CC5)CC4)cc3)C2(C)C)ccc1C#N` (stereo partly drawn) [Compound 267] was 30%.

The same assay, now with this note: compound at 100 nM, 8 hours, read-out: Degradation rate of the AR protein in VCaP cells, 100 nM (%).
As to `COc1cc(O[C@H]2C(C)(C)[C@H](NC(=O)c3ccc(N4CCC(C)(CN5CC6(CCc7cc8c(cc7O6)C(=O)N(C6CCC(=O)NC6=O)C8)C5)CC4)cc3)C2(C)C)ccc1C#N` (stereo partly drawn) [Compound 265], the inhibition at 0.1 µM is 78%.
With `COc1cc(O[C@H]2C(C)(C)[C@H](NC(=O)c3ccc(N4CCC(C)(CN5CCC6(CC5)COc5c(ccc7c5C(=O)N(C5CCC(=O)NC5=O)C7)C6)CC4)cc3)C2(C)C)ccc1C#N` (stereo partly drawn) [Compound 266], the inhibition at 0.1 µM came out at 74%.
For `COc1cc(O[C@H]2C(C)(C)[C@H](NC(=O)c3ccc(N4CCC(C)(CN5CCC6(CCc7cc8c(cc7O6)C(=O)N(C6CCC(=O)NC6=O)C8)CC5)CC4)cc3)C2(C)C)ccc1C#N` (stereo partly drawn) [Compound 267], the inhibition at 0.1 µM worked out at 69%.

In the next assay the test system is LNCaP FGC cells. Nature of the assay: Inhibition of proliferation of LNCaP cells (WST-8). Format: cell-based. To be noted: Homo sapiens, LNCaP, 96 h, LNCaP FGC cells, 96 hours, WST-8 absorbance at 450 nm; read-out: IC50 for inhibiting the proliferation of LNCaP cells. The protocol:
The cells were cultured in a cell culture incubator with 5% CO2 at 37° C. overnight. […] On the sixth day, 96 well plates were taken out, and 20 μL of WST-8 (Beytime, C0040) reagent was added to each well.
On the technique in general: Tetrazolium dyes change colour on reduction, which living cells bring about.
Consider `COc1cc(O[C@H]2C(C)(C)[C@H](NC(=O)c3ccc(N4CCC(C)(CN5CC6(CCc7cc8c(cc7O6)C(=O)N(C6CCC(=O)NC6=O)C8)C5)CC4)cc3)C2(C)C)ccc1C#N` (stereo partly drawn) [Compound 265], for which the pIC50 was 4.35.
In the case of `COc1cc(O[C@H]2C(C)(C)[C@H](NC(=O)c3ccc(N4CCC(C)(CN5CCC6(CC5)COc5c(ccc7c5C(=O)N(C5CCC(=O)NC5=O)C7)C6)CC4)cc3)C2(C)C)ccc1C#N` (stereo partly drawn) [Compound 266], the pIC50 was 4.66.
On to `COc1cc(O[C@H]2C(C)(C)[C@H](NC(=O)c3ccc(N4CCC(C)(CN5CCC6(CCc7cc8c(cc7O6)C(=O)N(C6CCC(=O)NC6=O)C8)CC5)CC4)cc3)C2(C)C)ccc1C#N` (stereo partly drawn) [Compound 267], for which the pIC50 is 4.36.

The test system of a further assay is VCaP cells. Nature of the assay: Inhibition of proliferation of VCaP cells (WST-8). It is filed as cell-based. To be noted: Homo sapiens; VCaP cells, 168 hours, WST-8 absorbance at 450 nm; read-out: IC50 for inhibiting the proliferation of VCaP cells. The method in brief: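 VCaP FGC cells, 15000 per well in DMEM with 10% FBS, were cultured at 37° C, 5% CO2. On day nine, WST-8 reagent was added to read proliferation.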
Regarding `COc1cc(O[C@H]2C(C)(C)[C@H](NC(=O)c3ccc(N4CCC(C)(CN5CC6(CCc7cc8c(cc7O6)C(=O)N(C6CCC(=O)NC6=O)C8)C5)CC4)cc3)C2(C)C)ccc1C#N` (stereo partly drawn) [Compound 265], the pIC50 is 8.82.
On the same count and under the same terms, the value for `COc1cc(O[C@H]2C(C)(C)[C@H](NC(=O)c3ccc(N4CCC(C)(CN5CCC6(CC5)COc5c(ccc7c5C(=O)N(C5CCC(=O)NC5=O)C7)C6)CC4)cc3)C2(C)C)ccc1C#N` (stereo partly drawn) [Compound 266] was 8.46; that for `COc1cc(O[C@H]2C(C)(C)[C@H](NC(=O)c3ccc(N4CCC(C)(CN5CCC6(CCc7cc8c(cc7O6)C(=O)N(C6CCC(=O)NC6=O)C8)CC5)CC4)cc3)C2(C)C)ccc1C#N` (stereo partly drawn) [Compound 267] was 8.35.
